Measured values published in ChEMBL document CHEMBL1201862, “PubChem BioAssay data set” (2004).
Calls of active or inactive are those of the source.

Experiments:
[1] = target: T1, Replicative DNA helicase DnaB (Mycobacterium tuberculosis, UniProt P9WMR3); test: DnaB intein splicing inhibitors, dose response, biochemical, cell-free fluorescence (AID 449749); format: functional
T1 sequence (P9WMR3 whole entry): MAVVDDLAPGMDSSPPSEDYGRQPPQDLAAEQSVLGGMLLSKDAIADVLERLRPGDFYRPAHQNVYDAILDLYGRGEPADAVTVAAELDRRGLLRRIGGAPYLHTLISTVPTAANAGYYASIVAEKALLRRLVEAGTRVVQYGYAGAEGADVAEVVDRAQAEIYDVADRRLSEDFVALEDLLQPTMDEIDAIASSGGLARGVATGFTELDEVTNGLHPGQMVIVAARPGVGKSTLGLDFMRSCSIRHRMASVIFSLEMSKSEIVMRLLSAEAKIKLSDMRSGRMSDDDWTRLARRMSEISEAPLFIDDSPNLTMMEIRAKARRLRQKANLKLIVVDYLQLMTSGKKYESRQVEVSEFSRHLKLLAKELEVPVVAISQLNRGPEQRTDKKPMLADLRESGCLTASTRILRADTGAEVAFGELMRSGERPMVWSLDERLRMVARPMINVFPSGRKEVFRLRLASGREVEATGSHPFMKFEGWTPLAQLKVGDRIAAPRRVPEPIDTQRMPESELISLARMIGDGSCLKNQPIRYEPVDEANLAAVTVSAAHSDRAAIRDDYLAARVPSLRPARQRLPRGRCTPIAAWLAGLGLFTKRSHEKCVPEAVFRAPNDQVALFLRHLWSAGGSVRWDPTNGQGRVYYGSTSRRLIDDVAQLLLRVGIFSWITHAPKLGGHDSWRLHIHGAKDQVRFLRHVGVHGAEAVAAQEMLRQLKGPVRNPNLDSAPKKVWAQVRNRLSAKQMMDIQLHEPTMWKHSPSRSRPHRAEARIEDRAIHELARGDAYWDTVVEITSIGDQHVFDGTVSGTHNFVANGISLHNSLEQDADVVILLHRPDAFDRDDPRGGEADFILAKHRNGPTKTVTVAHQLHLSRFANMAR

[2] = target: T2, Kappa-type opioid receptor (Homo sapiens, UniProt P41145); format: functional
T2 sequence (P41145 whole entry): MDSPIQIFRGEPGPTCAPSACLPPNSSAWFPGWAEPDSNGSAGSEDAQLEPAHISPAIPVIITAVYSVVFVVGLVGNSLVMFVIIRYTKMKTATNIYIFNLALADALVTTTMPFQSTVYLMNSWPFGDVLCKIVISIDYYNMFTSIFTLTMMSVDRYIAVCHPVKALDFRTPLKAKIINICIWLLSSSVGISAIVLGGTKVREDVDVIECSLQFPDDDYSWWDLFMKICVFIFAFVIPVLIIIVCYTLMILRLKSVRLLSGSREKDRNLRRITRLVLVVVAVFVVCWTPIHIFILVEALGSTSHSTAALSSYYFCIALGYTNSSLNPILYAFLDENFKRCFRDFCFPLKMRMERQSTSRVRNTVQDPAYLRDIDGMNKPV

[3] = target: T2, Kappa-type opioid receptor; format: functional; remark: listed apart in the source
[4] = target: G-protein coupled receptor 35 (Homo sapiens, UniProt Q9HC97); test: GPR35 antagonists blocking zaprinast-driven arrestin recruitment, primary screen, imaging, U2OS, beta-arrestin-GFP, zaprinast agonist (AID 2058); format: functional;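 further: antagonist potency meaning inhibition of agonist-induced arrestin redistribution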
Chain of G-protein coupled receptor 35 (Q9HC97 whole entry): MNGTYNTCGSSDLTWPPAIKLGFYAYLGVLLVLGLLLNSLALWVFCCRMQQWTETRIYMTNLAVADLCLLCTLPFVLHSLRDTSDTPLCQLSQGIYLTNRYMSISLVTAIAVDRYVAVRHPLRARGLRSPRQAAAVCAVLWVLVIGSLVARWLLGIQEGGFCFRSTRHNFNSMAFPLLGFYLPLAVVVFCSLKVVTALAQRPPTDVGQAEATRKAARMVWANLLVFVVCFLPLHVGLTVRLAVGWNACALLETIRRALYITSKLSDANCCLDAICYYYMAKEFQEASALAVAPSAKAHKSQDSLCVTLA

[5] = target: T3, Mu-type opioid receptor (Homo sapiens, UniProt P35372); test: HTS Image-Based Screen for Agonists of the MOR Receptor. [Related pubchem assays (depositor defined):AID1777, AID1785, AID1786, AID2133]; format: functional
T3 sequence (P35372 whole entry): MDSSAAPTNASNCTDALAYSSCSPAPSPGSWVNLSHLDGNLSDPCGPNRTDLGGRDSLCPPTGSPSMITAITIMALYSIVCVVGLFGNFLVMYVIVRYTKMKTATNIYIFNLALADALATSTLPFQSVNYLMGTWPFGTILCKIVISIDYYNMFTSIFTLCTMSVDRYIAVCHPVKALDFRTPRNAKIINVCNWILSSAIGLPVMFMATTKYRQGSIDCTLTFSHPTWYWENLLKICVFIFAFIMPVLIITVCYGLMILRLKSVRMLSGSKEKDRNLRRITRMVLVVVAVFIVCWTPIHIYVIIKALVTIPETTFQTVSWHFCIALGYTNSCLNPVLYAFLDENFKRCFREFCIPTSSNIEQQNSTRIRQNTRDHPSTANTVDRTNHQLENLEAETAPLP

[6] = target: T4, Delta-type opioid receptor (Homo sapiens, UniProt P41143); test: HTS Image-Based Screen for Antagonists of the DOR Receptor. [Related pubchem assays (depositor defined):AID1777, AID1785, AID1786, AID2133]; format: functional
T4 sequence (P41143 whole entry): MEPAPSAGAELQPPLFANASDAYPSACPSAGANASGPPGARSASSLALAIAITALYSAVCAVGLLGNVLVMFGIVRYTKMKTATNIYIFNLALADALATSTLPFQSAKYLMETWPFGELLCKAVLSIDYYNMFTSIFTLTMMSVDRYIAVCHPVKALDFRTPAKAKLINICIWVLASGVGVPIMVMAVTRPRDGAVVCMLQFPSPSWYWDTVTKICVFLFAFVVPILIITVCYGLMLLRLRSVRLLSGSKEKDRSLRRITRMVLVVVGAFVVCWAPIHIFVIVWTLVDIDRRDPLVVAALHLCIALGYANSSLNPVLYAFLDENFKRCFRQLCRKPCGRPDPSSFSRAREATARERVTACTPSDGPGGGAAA

[7] = target: E3 ubiquitin-protein ligase Mdm2 (Homo sapiens, UniProt Q00987); test: enhancers of MDM2-luciferase reporter signal, concentration-effect titration, project on inhibitors of MDM2 ubiquitin ligase, cellular assay, luminescent readout, 384-well plate format (AID 1394); format: functional;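 further: MDM2 E3 inhibitors raise luminescence so EC50 is for signal enhancement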
[8] = target: G-protein coupled receptor 55 (Homo sapiens, UniProt Q9Y2T6); test: GPR55 antagonists blocking LPI-driven arrestin recruitment, primary screen, imaging, U2OS, beta-arrestin-GFP, LPI agonist (AID 2013); format: functional;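 further: antagonist potency measured as reduced agonist-driven arrestin aggregation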
[9] = inhibitors of SNCA 5'UTR-driven reporter translation, confirmation, H4 neuroglioma cells, luminescence (AID 1988); format: functional, cell-based
[10] = target: T4, Delta-type opioid receptor; test: HTS Image-Based Screen for Agonists of the DOR Receptor. [Related pubchem assays (depositor defined):AID1777, AID1786, AID2133]; format: functional
[11] = target: Beta-galactosidase (Escherichia coli, UniProt Q8VNN2); format: functional
[12] = target: T5, Protein RecA (Mycobacterium tuberculosis, UniProt P9WHJ3); test: Fluorescence Cell-Free Homogeneous Dose Retest to Identify Inhibitors of RecA-Intein Splicing Activity. [Related pubchem assays (depositor defined):AID2097, AID2223, AID489010, AID492950]; format: functional
T5 sequence (P9WHJ3 whole entry): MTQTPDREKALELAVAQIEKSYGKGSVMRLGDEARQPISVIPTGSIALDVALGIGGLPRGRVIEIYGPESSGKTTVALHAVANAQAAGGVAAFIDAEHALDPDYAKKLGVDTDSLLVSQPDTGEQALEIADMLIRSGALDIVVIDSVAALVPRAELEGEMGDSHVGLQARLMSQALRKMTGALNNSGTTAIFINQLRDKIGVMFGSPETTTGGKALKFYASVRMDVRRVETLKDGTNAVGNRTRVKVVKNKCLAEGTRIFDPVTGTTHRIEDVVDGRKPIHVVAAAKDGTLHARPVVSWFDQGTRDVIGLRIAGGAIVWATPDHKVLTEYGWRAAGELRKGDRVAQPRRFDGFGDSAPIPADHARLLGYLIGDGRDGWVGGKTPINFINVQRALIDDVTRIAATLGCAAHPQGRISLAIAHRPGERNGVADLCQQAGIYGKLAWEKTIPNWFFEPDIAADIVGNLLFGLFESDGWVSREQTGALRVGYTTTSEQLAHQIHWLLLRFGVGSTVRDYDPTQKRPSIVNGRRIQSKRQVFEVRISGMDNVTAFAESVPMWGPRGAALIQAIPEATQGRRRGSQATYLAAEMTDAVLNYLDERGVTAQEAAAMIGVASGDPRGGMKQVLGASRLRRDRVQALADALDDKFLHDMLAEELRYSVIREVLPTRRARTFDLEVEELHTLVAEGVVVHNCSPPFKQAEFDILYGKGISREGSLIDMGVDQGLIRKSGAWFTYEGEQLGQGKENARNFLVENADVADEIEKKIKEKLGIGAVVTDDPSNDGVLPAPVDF

[13] = Luminescence Cell-Based Dose Response HTS to Identify Inhibitors of 5'UTR Stem-Loop Driven Prion Protein mRNA Translation in H4 Neuroglioblastoma Cells. [Related pubchem assays: 1827 (Project Summary), 1813 (Primary HTS)]; format: functional
[14] = inhibitors of firefly luciferase expression or activity, dose response, H4 neuroglioma cells, luminescence (AID 1990); format: functional, cell-based
[15] = target: CAAX prenyl protease 2 (Homo sapiens, UniProt Q9Y256); test: human Rce1 protease inhibitors, dose response, biochemical, yeast membranes, quenched-peptide fluorescence, cherry-pick (AID 588849)
[16] = target: Trypsin (Sus scrofa, UniProt P00761); test: porcine trypsin inhibitors, dose response, selectivity assay for Rce1 protease inhibitor project, biochemical, quenched peptide fluorescence, cherry-pick (AID 488789)
[17] = target: CAAX prenyl protease 2 (Saccharomyces cerevisiae S288c, UniProt Q03530); format: biochemical
Chain of CAAX prenyl protease 2 (Saccharomyces cerevisiae S288c, UniProt Q03530) (Q03530 whole entry): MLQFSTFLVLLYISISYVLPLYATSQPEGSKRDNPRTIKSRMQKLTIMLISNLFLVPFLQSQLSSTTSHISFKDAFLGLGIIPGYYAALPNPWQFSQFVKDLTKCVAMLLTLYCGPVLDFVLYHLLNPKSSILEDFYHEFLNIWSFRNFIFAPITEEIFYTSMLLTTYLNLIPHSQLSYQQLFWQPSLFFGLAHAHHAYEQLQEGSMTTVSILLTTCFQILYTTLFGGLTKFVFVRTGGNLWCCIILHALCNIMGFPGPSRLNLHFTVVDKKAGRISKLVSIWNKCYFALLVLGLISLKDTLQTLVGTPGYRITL

[18] = target: T4, Delta-type opioid receptor; test: SAR Analysis of Antagonists of the DOR Receptor using an Image-Based Assay - Set 3. [Related pubchem assays (depositor defined):AID1777, AID1785]; format: functional
[19] = target: T2, Kappa-type opioid receptor; test: SAR analysis of Antagonists of the Kappa Opioid Receptor (KOR) using an Image-Based Assay - Set 3. [Related pubchem assays (depositor defined):AID1777, AID1785]; format: functional
[20] = target: T2, Kappa-type opioid receptor; test: SAR analysis of small molecule antagonists of the kappa opioid receptor via a luminescent beta-arrestin assay - Set 3. [Related pubchem assays (depositor defined):AID1777, AID1778, AID1785, AID1786, AID1966, AID2133, AID2136, AID2285, AID2495]; format: functional
[21] = target: T3, Mu-type opioid receptor; test: SAR Analysis of Antagonists of the MOR Receptor using an Image-Based Assay - Set 3. [Related pubchem assays (depositor defined):AID1777, AID1785, AID1786, AID1966, AID2133, AID2136, AID2284, AID2285, AID2420]; format: functional
[22] = target: T6, Voltage-gated N-type calcium channel alpha-1B subunit/Amyloid beta A4 precursor protein-binding family A member 1 (Homo sapiens, UniProt Q00975+Q02410); format: protein assay
T6 sequence (Q00975 whole entry): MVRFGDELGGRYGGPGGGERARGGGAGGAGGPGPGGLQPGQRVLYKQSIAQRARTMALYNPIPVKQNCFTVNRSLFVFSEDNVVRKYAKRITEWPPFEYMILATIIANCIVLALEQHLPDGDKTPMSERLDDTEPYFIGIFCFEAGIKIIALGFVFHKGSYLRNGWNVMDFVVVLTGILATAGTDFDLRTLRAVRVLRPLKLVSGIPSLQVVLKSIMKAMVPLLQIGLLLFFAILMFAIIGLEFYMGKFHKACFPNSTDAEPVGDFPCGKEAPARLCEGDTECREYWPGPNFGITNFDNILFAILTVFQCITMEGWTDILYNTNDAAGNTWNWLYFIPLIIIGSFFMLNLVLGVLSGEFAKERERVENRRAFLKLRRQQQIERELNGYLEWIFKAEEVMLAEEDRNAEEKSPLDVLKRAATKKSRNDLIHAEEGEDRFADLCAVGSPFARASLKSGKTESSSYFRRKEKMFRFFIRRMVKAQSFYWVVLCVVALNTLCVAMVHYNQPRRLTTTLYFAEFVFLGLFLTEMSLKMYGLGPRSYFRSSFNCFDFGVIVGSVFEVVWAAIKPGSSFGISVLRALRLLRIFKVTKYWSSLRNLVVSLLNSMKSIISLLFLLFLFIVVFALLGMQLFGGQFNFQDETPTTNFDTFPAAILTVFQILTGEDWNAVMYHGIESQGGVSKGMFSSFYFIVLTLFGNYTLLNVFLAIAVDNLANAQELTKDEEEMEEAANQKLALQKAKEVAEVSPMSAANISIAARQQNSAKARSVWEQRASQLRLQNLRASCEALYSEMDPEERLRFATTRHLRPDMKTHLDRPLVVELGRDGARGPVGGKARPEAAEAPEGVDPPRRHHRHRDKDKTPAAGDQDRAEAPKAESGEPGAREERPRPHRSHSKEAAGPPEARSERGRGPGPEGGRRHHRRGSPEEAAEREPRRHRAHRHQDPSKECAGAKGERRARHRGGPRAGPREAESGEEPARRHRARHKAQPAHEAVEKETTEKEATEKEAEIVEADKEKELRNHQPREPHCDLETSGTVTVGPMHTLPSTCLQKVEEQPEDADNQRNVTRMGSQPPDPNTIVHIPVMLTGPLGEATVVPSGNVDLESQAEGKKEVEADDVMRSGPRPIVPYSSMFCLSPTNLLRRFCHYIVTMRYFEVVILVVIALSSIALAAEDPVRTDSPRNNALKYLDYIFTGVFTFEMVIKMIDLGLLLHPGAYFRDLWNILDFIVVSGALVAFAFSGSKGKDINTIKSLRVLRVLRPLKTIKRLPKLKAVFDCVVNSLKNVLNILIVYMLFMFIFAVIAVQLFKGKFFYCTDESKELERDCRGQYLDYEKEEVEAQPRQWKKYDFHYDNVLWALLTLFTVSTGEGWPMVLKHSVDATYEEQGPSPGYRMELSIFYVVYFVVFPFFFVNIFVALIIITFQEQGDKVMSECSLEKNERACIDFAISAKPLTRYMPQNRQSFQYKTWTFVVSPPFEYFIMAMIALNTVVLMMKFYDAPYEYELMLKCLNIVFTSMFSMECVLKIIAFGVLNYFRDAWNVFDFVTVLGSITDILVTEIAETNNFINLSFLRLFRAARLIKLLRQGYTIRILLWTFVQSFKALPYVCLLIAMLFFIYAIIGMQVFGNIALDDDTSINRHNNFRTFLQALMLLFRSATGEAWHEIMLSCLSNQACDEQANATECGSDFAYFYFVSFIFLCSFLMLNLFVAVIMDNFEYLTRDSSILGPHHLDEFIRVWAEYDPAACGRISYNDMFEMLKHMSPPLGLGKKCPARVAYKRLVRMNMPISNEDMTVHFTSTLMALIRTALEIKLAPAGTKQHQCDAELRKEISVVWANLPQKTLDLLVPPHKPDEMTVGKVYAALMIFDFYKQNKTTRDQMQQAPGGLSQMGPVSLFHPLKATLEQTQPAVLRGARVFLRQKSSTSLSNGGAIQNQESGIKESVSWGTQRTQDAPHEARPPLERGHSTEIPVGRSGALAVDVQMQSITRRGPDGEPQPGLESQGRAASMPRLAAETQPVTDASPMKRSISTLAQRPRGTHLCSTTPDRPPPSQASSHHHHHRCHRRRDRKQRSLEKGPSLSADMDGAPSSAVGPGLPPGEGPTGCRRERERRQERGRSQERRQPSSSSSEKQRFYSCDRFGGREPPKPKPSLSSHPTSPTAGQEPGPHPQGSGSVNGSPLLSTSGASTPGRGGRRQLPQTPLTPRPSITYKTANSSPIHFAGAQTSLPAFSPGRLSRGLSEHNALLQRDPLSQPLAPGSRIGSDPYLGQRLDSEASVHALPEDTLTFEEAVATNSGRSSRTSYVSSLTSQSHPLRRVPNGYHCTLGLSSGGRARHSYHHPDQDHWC
T6 sequence (Q02410 whole entry): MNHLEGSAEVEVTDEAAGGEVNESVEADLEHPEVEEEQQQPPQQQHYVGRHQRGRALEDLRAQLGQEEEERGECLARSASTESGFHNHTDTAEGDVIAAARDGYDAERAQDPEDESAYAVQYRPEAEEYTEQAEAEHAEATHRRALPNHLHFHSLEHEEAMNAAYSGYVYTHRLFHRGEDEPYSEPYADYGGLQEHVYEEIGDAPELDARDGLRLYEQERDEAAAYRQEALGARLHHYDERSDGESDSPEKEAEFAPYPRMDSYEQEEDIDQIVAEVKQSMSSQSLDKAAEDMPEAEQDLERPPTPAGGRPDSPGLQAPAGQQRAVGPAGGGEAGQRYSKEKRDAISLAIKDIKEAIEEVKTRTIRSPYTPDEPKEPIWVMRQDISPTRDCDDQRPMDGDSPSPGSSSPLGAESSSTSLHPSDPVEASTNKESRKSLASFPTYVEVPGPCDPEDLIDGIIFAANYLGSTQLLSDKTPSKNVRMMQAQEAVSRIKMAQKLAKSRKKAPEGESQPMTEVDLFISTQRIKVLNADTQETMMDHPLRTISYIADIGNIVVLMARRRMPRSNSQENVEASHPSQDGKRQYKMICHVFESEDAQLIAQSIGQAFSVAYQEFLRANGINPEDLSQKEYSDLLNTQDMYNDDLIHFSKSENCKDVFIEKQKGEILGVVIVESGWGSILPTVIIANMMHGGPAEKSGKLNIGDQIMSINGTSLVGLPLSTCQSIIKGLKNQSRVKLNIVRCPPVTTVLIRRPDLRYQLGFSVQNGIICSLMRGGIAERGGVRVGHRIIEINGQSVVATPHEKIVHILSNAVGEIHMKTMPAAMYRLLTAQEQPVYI

[23] = target: T6, Voltage-gated N-type calcium channel alpha-1B subunit/Amyloid beta A4 precursor protein-binding family A member 1; format: protein assay; remark: listed apart in the source
[24] = target: Large T antigen (Simian virus 40, UniProt P03070); format: functional, Betapolyomavirus macacae;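 further: Confirmatory-stage PubChem screen for compounds that inhibit SV40 T antigen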

In the case of CC(NC(=O)Cn1ncc(Cl)c(Cl)c1=O)C12CC3CC(CC(C3)C1)C2 (centres undefined), the AC50 [1] is reported as 0.441 µM (active), the IC50 [2] is reported as 2.63 µM and the IC50 [3] is reported as 2.14 µM (active). The IC50 [4] was 1.07 µM (active), the EC50 [5] was > 32 µM (inactive) and the IC50 [6] was 6.48 µM (active). The EC50 [7] was 1.55 µM (active), the IC50 [8] was 3.92 µM (active) and the EC50 [9] was > 120 µM (not active). For the same compound, the EC50 [10] was > 32 µM (inactive), the EC50 [11] was > 31.5 µM (inactive) and the EC50 [12] was 0.047 µM (active). For the same compound, the EC50 [13] was 6.41 µM (active) and the EC50 [14] was 8.55 µM (active).
In the case of COc1ccc(-c2cc3ccc(OCc4nn[nH]n4)cc3oc2=O)cc1OC, the AC50 [15] is reported as 1.71 µM (active), the AC50 [16] is reported as 2.34 µM (active) and the AC50 [17] is reported as 20.3 µM (active).
For CCc1ccc(S(=O)(=O)NCc2ccc(C(=O)NCCN(Cc3ccccc3)Cc3ccccc3)cc2)cc1, the IC50 [18] was > 32 µM (inactive), the IC50 [19] was > 32 µM (inactive) and the IC50 [20] was > 20 µM (inactive). The IC50 [21] was > 32 µM (inactive).
For N#Cc1c(O)nsc1Nc1ccccc1C(F)(F)F, the IC50 [22] was 7.54 µM (active), the IC50 [23] was > 50 µM (inactive) and the IC50 [24] was 56.5 µM (active).
